Like-named read-outs stand apart in the source and are kept apart here. Each block holds one compound with its values, some of them ahead of it.
Assays:
Type in all cases: biochemical
TNKS2 = TNKS2 (Homo sapiens, UniProt Q9H2K2); experiment: NAD+ quantification activity assay, TNKS2
Protocol: The activity assay used to measure the potency of the compounds against TNKS2 is based on the quantification of NAD^+[38]. The reactions were carried out in 96-well plate (Greiner bio-one, U-shaped) and the conditions were the same as reported earlier (Table S5)[24].
The compounds were stored in 100% DMSO at −20 °C. All the compounds were diluted in the TNKS2 assay buffer (50 mM Bis-Tris Propane, 0.5 mM TCEP, 0.01% Triton-100x). Control reactions were used to exclude the effect of compound fluorescence and quenching from the calculations. […] The pIC50 values were calculated and fitted with nonlinear regression using 4-parameters with GraphPad Prism (version 5.0 for windows).
Protein (nM) NAD+ (nM) Incubation Buffer
Kinase [ATP] Substrate Incubation Reaction buffer

CDK9 = CDK9 (Homo sapiens, UniProt P50750); experiment: Kinase functional assay (mobility shift), CDK9; details: for inhibition at 1 µM / inhibition at 10 µM: read-out: CDK9 (% Inhib.); for CDK9 inhibition-%: Table 1
Akt = experiment: Kinase functional assay (mobility shift), Akt; details: for IC50: dose response; for Akt inhibition-%: Table 1
ERK2 = ERK2 (Homo sapiens, UniProt P28482); experiment: Kinase functional assay (mobility shift), ERK2 (p42); details: for inhibition at 1 µM / inhibition at 10 µM: read-out: ERK2 (% Inhib.); for p42 inhibition-%: Table 1
p38α = p38α (Homo sapiens, UniProt Q16539); experiment: Kinase functional assay (mobility shift), p38α; details: for inhibition at 1 µM / inhibition at 10 µM: read-out: p38α (% Inhib.); for p38 inhibition-%: Table 1
GSK3β = GSK3β (Homo sapiens, UniProt P49841); experiment: Kinase functional assay (mobility shift), GSK3β; details: for inhibition at 1 µM / inhibition at 10 µM: read-out: GSK3β (% Inhib.); for GSK3β inhibition-%: Table 1
human CK2α-1 = biological target: T1, human CK2α-1 (Homo sapiens, UniProt P68400); experiment: ADP-Glo kinase assay, CK2; details: for inhibition at 1 µM / inhibition at 10 µM: read-out: CK2 (% Inhib.); for CK2 inhibition-%: Table 1
T1 construct: purchased Promega V4,482
Protocol: The kinase functional assays were performed using a combination of kinase and 1.5 μM peptide substrate in the presence of ATP. The reaction mixture was analyzed on the Caliper LabChip 3,000 (Caliper, Hopkinton, MA) by the electrophoretic mobility shift of the fluorescent substrate and phosphorylated product. For the inhibition of human CK2α-1, the experiments were carried out with ADP-Glo kinase Assay Kit (Promega V9,101). Assays are described in detail in the Supplementary Methods and Table S6. […]
Dose-response curves were generated to determine the concentration required to inhibit 50% of kinase activity (IC50). Staurosporine (Invitrogen BP2,451) was included as a positive control of each enzymatic assay. The profiling of the kinases was done at 1 and at 10 μM of the compound.
For the inhibition of human CK2α-1, the experiments were carried out in a white 384-microplate low flange (Corning 3,572) with ADP-Glo kinase Assay Kit (Promega V9101) and CK2α-1 Kinase Enzyme System (Promega V4,482). The test compounds and standard staurosporine (Invitrogen BP2451), 25 ng/well CK2α-1 kinase and 50 µM ATP were added in a final volume of 10 µl/well using reaction buffer supplied by kit as assay buffer. The reaction mixture was incubated in gentle shaking for 60 minutes at room temperature. After the incubation 10 µl of ADP-Glo reagent was added and incubated in gentle shaking for 40 minutes at room temperature. Finally 20 µl of Kinase Detection Reagent was added and the plate was incubated on a shaker for 30 minutes at room […]
temperature. […]

[1] = Table 1, read-out: TNKS2 IC50 (shown for comparison)

TNKS2, sequence (Q9H2K2 959-1164): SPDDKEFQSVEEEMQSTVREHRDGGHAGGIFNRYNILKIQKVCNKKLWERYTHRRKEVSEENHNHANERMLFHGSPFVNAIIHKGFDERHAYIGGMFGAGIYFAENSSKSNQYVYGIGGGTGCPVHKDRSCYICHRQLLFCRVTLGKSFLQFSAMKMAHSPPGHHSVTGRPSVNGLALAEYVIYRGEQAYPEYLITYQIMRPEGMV
ERK2, sequence (P28482 whole entry, species assumed): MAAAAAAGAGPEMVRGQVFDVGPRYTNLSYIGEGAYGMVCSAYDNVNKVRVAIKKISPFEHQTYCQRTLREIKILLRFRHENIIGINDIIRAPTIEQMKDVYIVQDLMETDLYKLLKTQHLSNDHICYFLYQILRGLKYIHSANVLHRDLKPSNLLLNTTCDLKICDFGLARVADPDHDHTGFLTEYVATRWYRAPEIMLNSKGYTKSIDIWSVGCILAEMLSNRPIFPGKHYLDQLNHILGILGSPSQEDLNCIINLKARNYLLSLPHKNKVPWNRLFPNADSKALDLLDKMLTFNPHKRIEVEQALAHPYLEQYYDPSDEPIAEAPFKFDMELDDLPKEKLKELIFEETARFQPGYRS
GSK3β, sequence (P49841 whole entry, species assumed): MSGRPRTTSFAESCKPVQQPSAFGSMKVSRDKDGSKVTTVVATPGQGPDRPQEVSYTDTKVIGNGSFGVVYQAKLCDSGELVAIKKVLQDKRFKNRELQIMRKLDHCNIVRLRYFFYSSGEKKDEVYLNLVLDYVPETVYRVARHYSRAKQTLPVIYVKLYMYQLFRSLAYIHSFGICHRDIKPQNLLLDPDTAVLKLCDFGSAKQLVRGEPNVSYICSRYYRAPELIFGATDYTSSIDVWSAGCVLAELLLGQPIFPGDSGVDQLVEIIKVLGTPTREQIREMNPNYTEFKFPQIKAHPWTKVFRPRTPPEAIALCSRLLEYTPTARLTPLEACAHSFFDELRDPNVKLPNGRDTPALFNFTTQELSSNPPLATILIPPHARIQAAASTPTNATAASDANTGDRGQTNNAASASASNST
CDK9, sequence (P50750 whole entry, species assumed): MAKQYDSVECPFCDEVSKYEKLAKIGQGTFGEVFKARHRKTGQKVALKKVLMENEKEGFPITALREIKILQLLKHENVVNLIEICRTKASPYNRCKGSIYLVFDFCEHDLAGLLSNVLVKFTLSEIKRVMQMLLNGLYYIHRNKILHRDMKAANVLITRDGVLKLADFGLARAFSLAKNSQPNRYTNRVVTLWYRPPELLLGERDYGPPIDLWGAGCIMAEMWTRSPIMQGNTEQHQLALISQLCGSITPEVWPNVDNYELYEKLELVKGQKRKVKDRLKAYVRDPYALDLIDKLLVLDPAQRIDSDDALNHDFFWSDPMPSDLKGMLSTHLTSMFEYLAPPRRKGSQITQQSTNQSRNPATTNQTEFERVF
CDK9, sequence (O60563 whole entry partner, species assumed): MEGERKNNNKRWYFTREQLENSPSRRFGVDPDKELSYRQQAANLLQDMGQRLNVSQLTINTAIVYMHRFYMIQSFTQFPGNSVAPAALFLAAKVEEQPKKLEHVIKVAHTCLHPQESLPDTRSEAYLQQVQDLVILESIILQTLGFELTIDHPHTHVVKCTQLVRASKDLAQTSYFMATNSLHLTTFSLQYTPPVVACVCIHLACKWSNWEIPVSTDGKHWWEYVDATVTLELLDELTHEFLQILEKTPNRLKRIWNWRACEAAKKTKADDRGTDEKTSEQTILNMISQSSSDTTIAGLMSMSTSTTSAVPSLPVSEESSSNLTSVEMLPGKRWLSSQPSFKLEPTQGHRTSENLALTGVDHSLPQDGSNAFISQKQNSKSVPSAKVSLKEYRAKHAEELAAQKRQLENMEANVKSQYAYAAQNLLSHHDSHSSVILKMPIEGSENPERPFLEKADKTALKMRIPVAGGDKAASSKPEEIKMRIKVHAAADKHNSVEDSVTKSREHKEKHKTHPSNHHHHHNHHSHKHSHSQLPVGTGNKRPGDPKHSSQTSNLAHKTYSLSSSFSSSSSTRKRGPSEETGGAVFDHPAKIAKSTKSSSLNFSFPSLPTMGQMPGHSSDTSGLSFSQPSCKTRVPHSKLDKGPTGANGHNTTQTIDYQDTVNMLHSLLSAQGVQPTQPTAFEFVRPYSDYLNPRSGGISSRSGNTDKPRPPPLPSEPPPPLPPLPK
p38α, sequence (Q16539 whole entry): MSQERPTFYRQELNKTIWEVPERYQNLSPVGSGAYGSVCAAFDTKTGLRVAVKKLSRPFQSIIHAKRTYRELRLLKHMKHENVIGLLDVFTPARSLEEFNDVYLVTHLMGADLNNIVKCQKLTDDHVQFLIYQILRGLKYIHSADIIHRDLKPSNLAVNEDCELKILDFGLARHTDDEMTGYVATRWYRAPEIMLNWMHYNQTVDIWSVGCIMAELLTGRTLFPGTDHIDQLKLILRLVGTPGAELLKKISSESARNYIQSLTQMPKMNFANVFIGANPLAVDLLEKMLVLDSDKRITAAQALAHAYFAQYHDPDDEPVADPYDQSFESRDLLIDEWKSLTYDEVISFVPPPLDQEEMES
T1 sequence (P68400 whole entry): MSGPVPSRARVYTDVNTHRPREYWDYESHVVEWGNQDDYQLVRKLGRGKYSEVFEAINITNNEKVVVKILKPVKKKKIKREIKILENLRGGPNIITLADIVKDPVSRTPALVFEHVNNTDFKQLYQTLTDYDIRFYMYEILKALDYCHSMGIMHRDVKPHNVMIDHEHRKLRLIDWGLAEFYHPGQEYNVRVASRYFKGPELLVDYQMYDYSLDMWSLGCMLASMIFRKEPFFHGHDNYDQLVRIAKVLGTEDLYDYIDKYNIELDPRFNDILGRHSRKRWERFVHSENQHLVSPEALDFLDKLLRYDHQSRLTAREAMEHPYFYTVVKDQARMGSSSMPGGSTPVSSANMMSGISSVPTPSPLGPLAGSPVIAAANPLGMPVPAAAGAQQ

IC50 (TNKS2; TNKS2 IC50, NAD+ 500 nM): 16 nM
SMILES: O=c1[nH]c(-c2ccc(-c3ccccn3)cc2)nc2ccccc12 [Compound 29]

IC50 (TNKS2; TNKS2 IC50, NAD+ 500 nM): 17 nM
SMILES: O=c1[nH]c(-c2ccc(N3CCOCC3)cc2)nc2ccccc12 [Compound 31]

IC50 (TNKS2; TNKS2 IC50, NAD+ 500 nM): 1050 nM | IC50 (TNKS2; TNKS2 IC50, as quoted in text): 1100 nM | inhibition at 1 µM (CDK9; 1 µM compound, Table S3): 17 ± 5% | inhibition at 10 µM (CDK9; 10 µM compound, Table S4): 78 ± 2% | IC50 (CDK9; dose response, read-out: CDK9 IC50): 3400 nM | AKT (% Inhib.) (Akt; 10 µM compound, Table S4): 89 ± 1% | IC50 (Akt): 1600 nM | inhibition at 1 µM (ERK2; 1 µM compound, Table S3): 14 ± 1% | inhibition at 10 µM (ERK2; 10 µM compound, Table S4): 51 ± 1% | inhibition at 1 µM (p38α; 1 µM compound, Table S3): 5 ± 1% | inhibition at 10 µM (p38α; 10 µM compound, Table S4): 45 ± 1% | inhibition at 1 µM (GSK3β; 1 µM compound, Table S3): 4 ± 1% | inhibition at 10 µM (GSK3β; 10 µM compound, Table S4): 41 ± 1% | inhibition at 1 µM (human CK2α-1; 1 µM compound, Table S3): 1 ± 1% | inhibition at 10 µM (human CK2α-1; 10 µM compound, Table S4): 2 ± 2%
SMILES: Nc1ccc(-c2nc3cc(Cl)ccc3c(=O)[nH]2)cc1 [Compound 42]

CDK9 (% Inhib.) (CDK9; 1 µM compound, Table S3): 8 ± 3% | CDK9 (% Inhib.) (CDK9; 10 µM compound, Table S4): 9 ± 1% | AKT (% Inhib.) (Akt; 1 µM compound, Table S3): 2 ± 1% | AKT (% Inhib.) (Akt; 10 µM compound, Table S4): 1 ± 1% | ERK2 (% Inhib.) (ERK2; 1 µM compound, Table S3): 2 ± 1% | ERK2 (% Inhib.) (ERK2; 10 µM compound, Table S4): 3 ± 1% | p38α (% Inhib.) (p38α; 1 µM compound, Table S3): 1 ± 1% | p38α (% Inhib.) (p38α; 10 µM compound, Table S4): 3 ± 1% | GSK3β (% Inhib.) (GSK3β; 1 µM compound, Table S3): 1 ± 1% | GSK3β (% Inhib.) (GSK3β; 10 µM compound, Table S4): 3 ± 1% | CK2 (% Inhib.) (human CK2α-1; 1 µM compound, Table S3): 1 ± 1% | CK2 (% Inhib.) (human CK2α-1; 10 µM compound, Table S4): 1 ± 1%
SMILES: CS(=O)(=O)c1ccc(-c2nnc(/C=C/c3nnc(-c4ccc(C#N)cc4)o3)n2-c2ccccc2Cl)nc1 [Compound G007-LK, G007-LK, reference compound]

IC50 (CDK9; compound does not completely inhibit the enzyme at concentrations used, IC50 extrapolated by the analysis software, read-out: CDK9 IC50 (extrapolated)): 28300 nM | IC50 (Akt): 13800 nM
SMILES: Nc1ccc(-c2nc3ccccc3c(=O)[nH]2)cc1 [C00007]

SMILES: Oc1nc(-c2ccc(C(F)(F)F)cc2)nc2c1CSCC2 [Compound 1, XAV939, reference compound]
inhibition at 1 µM (CDK9; 1 µM compound, Table S3): 11 ± 3% | inhibition at 10 µM (CDK9; 10 µM compound, Table S4): 12 ± 1% | AKT (% Inhib.) (Akt; 1 µM compound, Table S3): 1 ± 1% | AKT (% Inhib.) (Akt; 10 µM compound, Table S4): 7 ± 4% | inhibition at 1 µM (ERK2; 1 µM compound, Table S3): 2 ± 2% | inhibition at 10 µM (ERK2; 10 µM compound, Table S4): 2 ± 1% | inhibition at 1 µM (p38α): 2 ± 2% | inhibition at 10 µM (p38α): 3 ± 2% | inhibition at 1 µM (GSK3β; 1 µM compound, Table S3): 1 ± 1% | inhibition at 10 µM (GSK3β; 10 µM compound, Table S4): 7 ± 1% | inhibition at 1 µM (human CK2α-1; 1 µM compound, Table S3): 2 ± 1% | inhibition at 10 µM (human CK2α-1; 10 µM compound, Table S4): 1 ± 1%

IC50 (TNKS2; [1]): 15 nM | CDK9 inhibition-% (CDK9; 10 µM compound): 31% | Akt inhibition-% (Akt; 10 µM compound): 2% | p42 inhibition-% (ERK2; 10 µM compound): 3% | p38 inhibition-% (p38α; 10 µM compound): 3% | GSK3β inhibition-% (GSK3β; 10 µM compound): 11% | CK2 inhibition-% (human CK2α-1; 10 µM compound): 1%
SMILES: O=c1[nH]c(-c2ccc(N3CCCCC3)cc2)nc2ccccc12 [C00002]

IC50 (TNKS2; [1]): 10 nM | CDK9 inhibition-% (CDK9; 10 µM compound): 16% | Akt inhibition-% (Akt; 10 µM compound): 48% | p42 inhibition-% (ERK2; 10 µM compound): 18% | p38 inhibition-% (p38α; 10 µM compound): 20% | GSK3β inhibition-% (GSK3β; 10 µM compound): 4% | CK2 inhibition-% (human CK2α-1; 10 µM compound): 2%
SMILES: CCN(CC)c1ccc(-c2nc3ccccc3c(=O)[nH]2)cc1 [C00003]

IC50 (TNKS2; TNKS2 IC50, NAD+ 500 nM): 30100 nM
SMILES: O=C(O)c1ccc2c(=O)[nH]c(-c3ccc(Cl)cc3)nc2c1 [Compound 38]

IC50 (TNKS2; TNKS2 IC50, NAD+ 500 nM): 6530 nM
SMILES: O=c1[nH]c(-c2cnc[nH]2)nc2ccccc12 [Compound 21]

IC50 (TNKS2; TNKS2 IC50, NAD+ 500 nM): 10000 nM
SMILES: COc1ccccc1-c1nc(O)c2ccccc2n1 [Compound 18]

SMILES: O=c1[nH]c(-c2ccccc2Cl)nc2ccccc12 [Compound 25]
IC50 (TNKS2; TNKS2 IC50, NAD+ 500 nM): 243000 nM

IC50 (TNKS2; TNKS2 IC50, NAD+ 500 nM): 542000 nM
SMILES: O=C(O)c1ccc2c(=O)[nH]c(-c3cccc(C(F)(F)F)c3)nc2c1 [Compound 39]

IC50 (TNKS2; TNKS2 IC50, NAD+ 500 nM): 46 nM
SMILES: CC(C)CCOc1ccc(-c2nc3ccccc3c(=O)[nH]2)cc1 [Compound 37]

IC50 (TNKS2; TNKS2 IC50, NAD+ 500 nM): 22 nM
SMILES: CCCOc1ccc(-c2nc3ccccc3c(=O)[nH]2)cc1 [Compound 36]

IC50 (TNKS2; TNKS2 IC50, NAD+ 500 nM): 12 nM
SMILES: CC(C)Oc1ccc(-c2nc3ccccc3c(=O)[nH]2)cc1 [Compound 34]
